Tests used:
[1] = molecular target: T1, Mitogen-activated protein kinase 6 (Homo sapiens, UniProt Q16659); test: Binding affinity to recombinant wild-type ERK3 (9 to 327 residues) (unknown origin) expressed in Escherichia coli by microscale thermophoresis assay
[2] = molecular target: T1, Mitogen-activated protein kinase 6; test: Binding affinity to LPP-dephosphorylated recombinant wild-type ERK3 (9 to 327 residues) (unknown origin) expressed in Escherichia coli by microscale thermophoresis assay
[3] = molecular target: T1, Mitogen-activated protein kinase 6; test: Binding affinity to recombinant wild-type ERK3 (9 to 327 residues) (unknown origin) expressed in Sf21 insect cells by microscale thermophoresis assay
[4] = molecular target: T1, Mitogen-activated protein kinase 6; test: Binding affinity to wild-type human partial length ERK3 (M1 to P413 residues) expressed in bacterial expression system by kinomescan method

T1 sequence (Q16659 whole entry, the tested form may be a part): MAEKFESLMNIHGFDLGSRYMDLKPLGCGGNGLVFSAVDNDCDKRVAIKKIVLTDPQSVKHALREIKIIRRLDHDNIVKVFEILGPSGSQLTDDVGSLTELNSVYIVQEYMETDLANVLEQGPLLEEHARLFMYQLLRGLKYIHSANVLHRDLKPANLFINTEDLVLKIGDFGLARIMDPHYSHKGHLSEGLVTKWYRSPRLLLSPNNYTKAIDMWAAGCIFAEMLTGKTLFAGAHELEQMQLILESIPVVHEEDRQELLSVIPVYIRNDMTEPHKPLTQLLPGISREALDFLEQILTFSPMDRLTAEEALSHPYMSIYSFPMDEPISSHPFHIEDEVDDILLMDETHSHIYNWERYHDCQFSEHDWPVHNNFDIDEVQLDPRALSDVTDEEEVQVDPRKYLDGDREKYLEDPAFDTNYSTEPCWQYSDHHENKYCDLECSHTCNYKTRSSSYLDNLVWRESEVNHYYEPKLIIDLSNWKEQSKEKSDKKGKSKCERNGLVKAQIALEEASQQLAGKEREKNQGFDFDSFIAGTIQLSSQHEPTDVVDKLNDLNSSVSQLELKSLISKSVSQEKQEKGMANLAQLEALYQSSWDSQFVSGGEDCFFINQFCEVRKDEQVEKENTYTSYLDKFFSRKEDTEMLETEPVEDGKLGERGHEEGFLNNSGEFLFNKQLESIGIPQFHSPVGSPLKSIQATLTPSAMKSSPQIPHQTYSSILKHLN

Row | Kd [1] | Kd [2] | Kd [3] | Kd [4] | SMILES
1 | 14.3 µM | – | – | – | O=C(Nc1ccc2[nH]nc(-c3ccncc3)c2c1)[C@@H]1CCN(CC(=O)N2CCN(c3ccc(-c4ncccn4)cc3)CC2)C1
2 | – | > 10 µM | – | – | Nc1n[nH]c2nnc(-c3c(-c4ccccc4)nn4ccccc34)cc12
3 | 1.3 µM | 1.5 µM | 1.1 µM | 0.98 µM | COc1ccc(-n2nnc3cnc(N[C@H]4CC[C@H](C(N)=O)CC4)nc32)cc1

Reference: ChEMBL document CHEMBL4699499, “Biochemical, cellular and structural characterization of novel and selective ERK3 inhibitors” (Bioorg Med Chem Lett, 2020)
